Source: article PMC6467784 (Journal of medicinal chemistry, 2019)
Read-outs that look alike come from different tables or passages of the source.

Legend:
hCYP P450 2C9 = hCYP P450 2C9 (Homo sapiens, UniProt P11712); experiment: CYP 2C9 inhibition; assay type: in vitro ADME
1A2 CYP isozyme = 1A2 CYP isozyme (Homo sapiens, UniProt P05177); experiment: CYP 1A2 inhibition; assay type: in vitro ADME
2C19 CYP isozyme = 2C19 CYP isozyme (Homo sapiens, UniProt P33261); experiment: CYP 2C19 inhibition; assay type: in vitro ADME
Sequence of 2C19 CYP isozyme (P33261 whole entry): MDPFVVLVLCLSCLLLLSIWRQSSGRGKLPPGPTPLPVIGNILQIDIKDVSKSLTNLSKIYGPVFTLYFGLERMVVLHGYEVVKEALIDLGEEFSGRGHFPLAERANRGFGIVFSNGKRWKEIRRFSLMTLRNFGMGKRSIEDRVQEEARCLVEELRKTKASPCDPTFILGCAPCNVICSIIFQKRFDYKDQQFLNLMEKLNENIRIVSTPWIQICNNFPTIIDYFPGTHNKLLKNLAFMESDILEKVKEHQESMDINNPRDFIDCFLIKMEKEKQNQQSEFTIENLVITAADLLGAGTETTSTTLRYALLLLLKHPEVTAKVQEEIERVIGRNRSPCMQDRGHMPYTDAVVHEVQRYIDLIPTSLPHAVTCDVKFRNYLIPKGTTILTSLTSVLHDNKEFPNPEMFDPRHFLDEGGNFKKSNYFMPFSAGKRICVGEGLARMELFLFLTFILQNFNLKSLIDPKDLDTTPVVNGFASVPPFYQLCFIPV

Rat liver microsomes = assay type: in vitro ADME
[1] = Stability in human plasma; assay type: in vitro ADME; settings: human (h)
[2] = Pharmacokinetics in the male rat; assay type: in vivo; settings: 3 mg/kg p.o.
wild-type C57BL/6J mice [3] = experiment: Body temperature and locomotor activity by telemetry after ip. dosing; assay type: in vivo, mouse
Mouse liver microsomes = assay type: in vitro ADME
A1AR, A3AR [4] = experiment: Hypothermia in A1AR, A3AR and A1AR/A3AR deficient mice; assay type: in vivo, mouse; settings: 3 mg/kg ip.
mice = experiment: Hypothermia after intracerebroventricular infusion; assay type: in vivo, mouse
hCYP P450 2D6 = hCYP P450 2D6 (Homo sapiens, UniProt P10635); experiment: CYP 2D6 inhibition; assay type: in vitro ADME
Sequence of hCYP P450 2D6 (P10635 whole entry): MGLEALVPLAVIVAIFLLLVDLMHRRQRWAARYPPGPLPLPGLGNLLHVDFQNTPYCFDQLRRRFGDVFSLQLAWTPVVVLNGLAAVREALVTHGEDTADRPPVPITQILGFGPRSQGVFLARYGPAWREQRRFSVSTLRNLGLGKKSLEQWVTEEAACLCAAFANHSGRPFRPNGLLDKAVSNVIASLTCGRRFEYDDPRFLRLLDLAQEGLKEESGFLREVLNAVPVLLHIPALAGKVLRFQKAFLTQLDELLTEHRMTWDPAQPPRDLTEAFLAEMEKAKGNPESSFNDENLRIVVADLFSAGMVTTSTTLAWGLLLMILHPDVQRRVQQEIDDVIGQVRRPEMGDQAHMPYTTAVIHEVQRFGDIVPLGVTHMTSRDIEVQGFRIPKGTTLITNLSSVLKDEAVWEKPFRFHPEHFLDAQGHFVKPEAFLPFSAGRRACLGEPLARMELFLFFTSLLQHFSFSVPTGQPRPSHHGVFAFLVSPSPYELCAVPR

CACO-2 cells = experiment: CACO-2 permeability and efflux; assay type: in vitro ADME
hA2BAR = biological target: T1, hA2BAR (Homo sapiens, UniProt P29275); experiment: hA2BAR radioligand binding using [3H]54
T1 sequence (P29275 1-332): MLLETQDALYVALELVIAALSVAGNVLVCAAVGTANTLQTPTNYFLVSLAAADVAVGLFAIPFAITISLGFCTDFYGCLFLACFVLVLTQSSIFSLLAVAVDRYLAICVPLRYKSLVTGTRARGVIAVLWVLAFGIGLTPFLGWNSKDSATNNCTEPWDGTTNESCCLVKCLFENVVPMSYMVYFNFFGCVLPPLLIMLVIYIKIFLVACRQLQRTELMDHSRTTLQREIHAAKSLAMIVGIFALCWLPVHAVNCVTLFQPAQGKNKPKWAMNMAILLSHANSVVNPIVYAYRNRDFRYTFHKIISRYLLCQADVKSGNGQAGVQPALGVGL

Human liver microsomes = assay type: in vitro ADME
[5] = Stability in mouse plasma; assay type: in vitro ADME; settings: mouse (m)
[6] = Stability in simulated gastric fluid; assay type: in vitro ADME
Stability in rat plasma = assay type: in vitro ADME
[7] = Stability in simulated intestinal fluid; assay type: in vitro ADME
HEP-G2 hepatocytes = experiment: Toxicity in HEP-G2 hepatocytes; assay type: cell-based
hCYP P450 3A4 = hCYP P450 3A4 (Homo sapiens, UniProt P08684); experiment: CYP 3A4 inhibition; assay type: in vitro ADME
Sequence of hCYP P450 3A4 (P08684 whole entry): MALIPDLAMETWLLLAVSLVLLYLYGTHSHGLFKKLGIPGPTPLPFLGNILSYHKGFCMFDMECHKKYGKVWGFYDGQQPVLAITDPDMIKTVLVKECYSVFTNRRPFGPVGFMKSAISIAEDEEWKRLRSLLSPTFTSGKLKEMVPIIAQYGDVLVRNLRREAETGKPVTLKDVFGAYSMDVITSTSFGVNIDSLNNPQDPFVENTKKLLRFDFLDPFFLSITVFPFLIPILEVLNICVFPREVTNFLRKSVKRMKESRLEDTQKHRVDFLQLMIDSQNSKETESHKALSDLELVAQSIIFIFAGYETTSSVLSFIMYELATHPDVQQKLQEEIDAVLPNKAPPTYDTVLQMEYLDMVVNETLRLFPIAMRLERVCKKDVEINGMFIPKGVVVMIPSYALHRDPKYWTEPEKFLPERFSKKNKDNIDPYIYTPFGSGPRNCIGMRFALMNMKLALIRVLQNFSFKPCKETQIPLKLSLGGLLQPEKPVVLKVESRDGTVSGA

wild-type C57BL/6J mice [8] = settings: average from dosing to 60 min, ref [30], cited from earlier work
A1AR, A3AR [9] = settings: ref [30]; cited from earlier work
anesthetized rat = experiment: Cardiovascular effects in the anesthetized rat; assay type: in vivo; settings: preliminary
σ1 = σ1 (Homo sapiens, UniProt Q99720); experiment: PDSP off-target binding, σ1
Sequence of σ1 (Q99720 whole entry): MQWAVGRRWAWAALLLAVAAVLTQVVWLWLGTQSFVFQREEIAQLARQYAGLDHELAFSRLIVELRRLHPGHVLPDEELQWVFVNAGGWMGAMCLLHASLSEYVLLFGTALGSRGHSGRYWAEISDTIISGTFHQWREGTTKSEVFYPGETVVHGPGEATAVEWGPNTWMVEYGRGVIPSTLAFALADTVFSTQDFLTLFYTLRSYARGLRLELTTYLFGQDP

403 kinases = experiment: Kinase screen; assay type: binding; settings: at 10 μM; among 403 kinases
mouse = settings: 60 mg/kg
GPCR assays = experiment: Broad GPCR screening; assay type: cell-based; settings: at 10 μM; DiscoverX
[10] = Pharmacokinetics in male cynomolgus monkeys; assay type: in vivo, cynomolgus monkey; settings: one-day observation period
female rhesus monkeys = experiment: Tolerability in female rhesus monkeys; assay type: in vivo, rhesus monkey; settings: 1 or 3 mg/kg in a food treat; up to 4 h post-dosing
hA3AR = hA3AR (Homo sapiens, UniProt P0DMS8); settings: read-out: A3AR Ki; human (h); ref [1],[17],[23],[30],[32]-[35],[43],[45]; cited from earlier work
Sequence of hA3AR (P0DMS8 whole entry): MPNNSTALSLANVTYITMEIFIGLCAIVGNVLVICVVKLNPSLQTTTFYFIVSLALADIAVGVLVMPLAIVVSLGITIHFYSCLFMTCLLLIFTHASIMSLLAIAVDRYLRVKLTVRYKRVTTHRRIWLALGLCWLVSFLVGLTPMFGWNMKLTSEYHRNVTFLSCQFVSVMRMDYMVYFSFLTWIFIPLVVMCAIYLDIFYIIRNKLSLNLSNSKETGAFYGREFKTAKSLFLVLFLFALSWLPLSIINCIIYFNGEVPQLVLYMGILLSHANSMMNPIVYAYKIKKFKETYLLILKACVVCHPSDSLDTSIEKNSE

hA2AAR = hA2AAR (Homo sapiens, UniProt P29274); settings: read-out: A2AAR Ki; human (h); ref [1],[17],[23],[30],[32]-[35],[43],[45]; cited from earlier work
Sequence of hA2AAR (P29274 whole entry): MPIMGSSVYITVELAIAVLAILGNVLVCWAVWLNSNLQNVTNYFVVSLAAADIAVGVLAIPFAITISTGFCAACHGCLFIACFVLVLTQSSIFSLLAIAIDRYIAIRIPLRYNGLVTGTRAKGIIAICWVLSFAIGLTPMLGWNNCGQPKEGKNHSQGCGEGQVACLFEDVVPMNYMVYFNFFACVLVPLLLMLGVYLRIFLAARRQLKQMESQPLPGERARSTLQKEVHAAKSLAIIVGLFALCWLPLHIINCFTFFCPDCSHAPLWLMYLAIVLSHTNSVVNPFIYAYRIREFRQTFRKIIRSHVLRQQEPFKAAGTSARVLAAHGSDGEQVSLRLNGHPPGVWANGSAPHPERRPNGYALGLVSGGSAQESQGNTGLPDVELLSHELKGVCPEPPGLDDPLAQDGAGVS

rA2AAR = settings: read-out: A2AAR Ki; rat (r); ref [17],[23],[30],[33],[34],[43],[45]; cited from earlier work
hA1AR = biological target: T2, hA1AR (Homo sapiens, UniProt P30542); settings: human (h), cited from earlier work; for Ki: read-out: A1AR Ki, ref [1],[17],[23],[30],[32]-[36],[43]-[45]
T2 sequence (P30542 1-326): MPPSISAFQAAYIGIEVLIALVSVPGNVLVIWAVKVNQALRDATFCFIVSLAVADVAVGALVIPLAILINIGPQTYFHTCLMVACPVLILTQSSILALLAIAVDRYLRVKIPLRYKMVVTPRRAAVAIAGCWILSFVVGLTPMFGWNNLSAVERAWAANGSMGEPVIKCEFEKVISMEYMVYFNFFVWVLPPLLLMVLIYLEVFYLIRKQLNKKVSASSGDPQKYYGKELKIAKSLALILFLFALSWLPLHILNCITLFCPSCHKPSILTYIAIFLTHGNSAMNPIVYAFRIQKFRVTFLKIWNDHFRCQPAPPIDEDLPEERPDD

[11] = tested on: off-target receptors and transporters; experiment: PDSP off-target screen; assay type: binding, human
rA1AR = rA1AR (Rattus norvegicus, UniProt P25099); settings: read-out: A1AR Ki; rat (r); ref [17],[23],[30],[33],[34],[43],[45]; cited from earlier work
Sequence of rA1AR (P25099 whole entry): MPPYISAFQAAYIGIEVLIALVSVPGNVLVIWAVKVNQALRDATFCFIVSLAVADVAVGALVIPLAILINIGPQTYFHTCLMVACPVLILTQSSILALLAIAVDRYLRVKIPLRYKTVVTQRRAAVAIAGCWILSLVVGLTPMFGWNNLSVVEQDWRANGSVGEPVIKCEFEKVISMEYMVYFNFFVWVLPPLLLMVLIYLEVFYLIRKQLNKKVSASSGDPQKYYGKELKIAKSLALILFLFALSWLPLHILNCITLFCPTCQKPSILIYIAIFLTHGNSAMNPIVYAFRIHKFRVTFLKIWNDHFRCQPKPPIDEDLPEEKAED

DAT = DAT (Homo sapiens, UniProt Q01959); experiment: PDSP off-target binding, DAT; settings: read-out: Off-target Ki, DAT
Sequence of DAT (Q01959 whole entry): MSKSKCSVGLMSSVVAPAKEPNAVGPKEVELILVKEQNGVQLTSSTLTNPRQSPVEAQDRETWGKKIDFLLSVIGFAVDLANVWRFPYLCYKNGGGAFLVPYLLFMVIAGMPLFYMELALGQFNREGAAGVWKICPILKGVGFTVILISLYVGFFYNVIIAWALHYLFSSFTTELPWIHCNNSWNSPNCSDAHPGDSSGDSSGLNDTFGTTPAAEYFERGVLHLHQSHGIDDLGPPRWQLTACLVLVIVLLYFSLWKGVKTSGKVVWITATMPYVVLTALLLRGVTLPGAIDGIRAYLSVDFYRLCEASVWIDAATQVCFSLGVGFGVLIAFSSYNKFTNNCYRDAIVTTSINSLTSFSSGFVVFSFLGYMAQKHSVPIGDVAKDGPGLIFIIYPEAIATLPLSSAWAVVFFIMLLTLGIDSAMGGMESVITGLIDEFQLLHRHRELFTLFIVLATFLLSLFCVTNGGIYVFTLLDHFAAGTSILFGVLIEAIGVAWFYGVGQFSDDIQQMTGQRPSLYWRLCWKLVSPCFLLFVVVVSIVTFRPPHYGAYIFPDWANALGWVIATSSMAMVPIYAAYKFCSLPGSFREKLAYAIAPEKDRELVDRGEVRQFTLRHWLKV

mA3AR = mA3AR (Mus musculus, UniProt Q61618); settings: read-out: A3AR Ki; mouse (m); ref [17],[23],[30],[32]-[34],[43],[45]; cited from earlier work
mA1AR = biological target: T3, mA1AR (Mus musculus, UniProt Q60612); settings: read-out: A1AR Ki; mouse (m); ref [17],[23],[30],[32]-[34],[36],[43]-[45]; cited from earlier work
T3 sequence (Q60612 1-326): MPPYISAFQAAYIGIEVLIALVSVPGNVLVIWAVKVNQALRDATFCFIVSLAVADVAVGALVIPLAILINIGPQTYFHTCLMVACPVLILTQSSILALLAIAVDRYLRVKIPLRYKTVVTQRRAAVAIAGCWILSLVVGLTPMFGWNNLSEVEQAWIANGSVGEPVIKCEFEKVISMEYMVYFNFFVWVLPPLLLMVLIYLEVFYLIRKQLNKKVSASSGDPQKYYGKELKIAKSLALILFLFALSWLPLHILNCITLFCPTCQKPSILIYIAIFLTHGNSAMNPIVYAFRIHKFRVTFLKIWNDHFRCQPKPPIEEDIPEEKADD

mA2AAR = mA2AAR (Mus musculus, UniProt Q60613); settings: mouse (m); at 10 μM; ref [30],[33],[34],[43]; cited from earlier work
5HT2C = 5HT2C (Homo sapiens, UniProt P28335); experiment: PDSP off-target binding, 5HT2C; settings: read-out: Off-target Ki, 5HT2C
Sequence of 5HT2C (P28335 33-458): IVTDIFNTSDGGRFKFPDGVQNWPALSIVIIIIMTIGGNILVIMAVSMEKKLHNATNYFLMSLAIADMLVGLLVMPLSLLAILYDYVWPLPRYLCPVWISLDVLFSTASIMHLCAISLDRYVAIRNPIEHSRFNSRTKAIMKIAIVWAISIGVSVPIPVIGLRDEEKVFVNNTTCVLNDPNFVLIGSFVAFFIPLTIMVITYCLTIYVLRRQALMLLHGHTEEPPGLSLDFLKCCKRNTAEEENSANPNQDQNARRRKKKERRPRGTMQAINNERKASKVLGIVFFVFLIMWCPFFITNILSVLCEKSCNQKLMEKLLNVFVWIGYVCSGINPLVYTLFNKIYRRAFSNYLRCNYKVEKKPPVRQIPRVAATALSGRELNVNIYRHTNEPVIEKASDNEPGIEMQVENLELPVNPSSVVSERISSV

bovine A1AR = settings: read-out: Ki at bovine A1AR; ref [36],[37]; cited from earlier work

Sequence of 1A2 CYP isozyme (P05177 whole entry): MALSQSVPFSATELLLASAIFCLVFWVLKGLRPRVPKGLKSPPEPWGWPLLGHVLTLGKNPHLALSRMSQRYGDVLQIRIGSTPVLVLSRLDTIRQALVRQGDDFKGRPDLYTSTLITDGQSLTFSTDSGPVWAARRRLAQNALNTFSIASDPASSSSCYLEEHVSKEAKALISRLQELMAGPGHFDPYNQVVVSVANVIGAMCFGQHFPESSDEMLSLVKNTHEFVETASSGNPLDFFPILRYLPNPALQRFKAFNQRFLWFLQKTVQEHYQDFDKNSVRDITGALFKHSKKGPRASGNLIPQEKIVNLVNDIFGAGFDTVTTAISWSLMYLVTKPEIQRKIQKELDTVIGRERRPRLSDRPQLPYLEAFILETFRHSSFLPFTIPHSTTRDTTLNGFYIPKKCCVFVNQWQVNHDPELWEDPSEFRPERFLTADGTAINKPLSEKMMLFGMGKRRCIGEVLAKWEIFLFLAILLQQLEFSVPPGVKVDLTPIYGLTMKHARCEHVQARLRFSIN
Sequence of hCYP P450 2C9 (P11712 whole entry): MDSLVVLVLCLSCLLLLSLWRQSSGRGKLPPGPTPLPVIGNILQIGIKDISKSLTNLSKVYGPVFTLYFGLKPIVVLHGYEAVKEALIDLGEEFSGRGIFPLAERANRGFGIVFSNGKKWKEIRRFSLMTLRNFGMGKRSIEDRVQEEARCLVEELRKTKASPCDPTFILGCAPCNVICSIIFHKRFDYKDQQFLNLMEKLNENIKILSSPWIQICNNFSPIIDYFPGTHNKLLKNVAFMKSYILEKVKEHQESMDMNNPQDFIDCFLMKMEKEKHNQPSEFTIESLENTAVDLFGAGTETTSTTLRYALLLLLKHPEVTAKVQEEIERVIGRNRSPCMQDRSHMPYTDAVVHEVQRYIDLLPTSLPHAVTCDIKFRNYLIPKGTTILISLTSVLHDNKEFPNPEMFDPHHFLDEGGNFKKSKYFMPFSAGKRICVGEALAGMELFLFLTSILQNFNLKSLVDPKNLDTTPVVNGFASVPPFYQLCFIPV

OC[C@H]1O[C@@H](n2cnc3c(NC(C4CCC4)C4CCC4)ncnc32)[C@H](O)C1O (stereo in doubt) [Compound 9, (2R,3R,4R,5R)-2-(6-((Dicyclobutylmethyl)amino)-9H-purin-9-yl)-5-(hydroxymethyl)tetrahydrofuran-3,4-diol]
Inhibition of 2C9 CYP isozyme (hCYP P450 2C9): weak inhibition
Inhibition of 1A2 CYP isozyme (1A2 CYP isozyme): no inhibition
Inhibition of 2C19 CYP isozyme (2C19 CYP isozyme): no inhibition
Clearance in liver microsomes (Rat liver microsomes): medium clearance
Stability in plasma [1]: completely stable
maximal concentration, molar [2]: 310 nM
Tb (wild-type C57BL/6J mice [3]; 3 mg/kg ip., average from dosing to 60 min, mean ±SD): 33.0±0.7 °C
Effect on Tb in WT mice (wild-type C57BL/6J mice [3]; ip., up to 3 or 10 mg/kg): produced hypothermia and hypoactivity
Clearance in liver microsomes (Mouse liver microsomes): medium clearance
Receptor dependence of hypothermia (A1AR, A3AR [4]; A1AR KO, A3AR KO, double KO mice): dependent on A1AR, without a contribution from A3AR
ARs causing hypothermia (A1AR, A3AR [4]; WT vs AR-KO mice (Figure 2)): A1AR selective (Figure 2)
Duration of hypothermia after icv. administration (mice; 1.67 μg/mouse icv. (= […])): ~ 10 h
Effect on Tb after icv. administration (mice; 1.67 μg/mouse icv. (= […])): deep hypothermia
Tb reached after icv. administration (mice; 5 μg injected icv. (equivalent to […])): ~ 24 °C
Inhibition of 2D6 CYP isozyme (hCYP P450 2D6): no inhibition
Permeability in CACO-2 cells (CACO-2 cells): high permeability
Ki (hA2BAR): 8620 nM
Clearance in liver microsomes (Human liver microsomes; human): medium clearance
Stability in plasma [5]: completely stable
Stability in simulated gastric fluid [6]: completely stable
Stability in plasma (Stability in rat plasma): completely stable
Stability in simulated intestinal fluid [7]: completely stable
Toxicity in HEP-G2 hepatocytes (HEP-G2 hepatocytes): nontoxic
Inhibition of 3A4 CYP isozyme (hCYP P450 3A4): no inhibition

OC[C@H]1O[C@@H](n2cnc3c(NC4CCCC4)ncnc32)[C@H](O)[C@@H]1O [Compound 1a]
Tb (wild-type C57BL/6J mice [8]; 1 mg/kg ip.): 32.4±0.5 °C
ARs causing hypothermia (A1AR, A3AR [9]): A3AR > A1AR[30]

OC[C@H]1O[C@@H](n2cnc3c(NC4CCCC4)nc(Cl)nc32)[C@H](O)[C@@H]1O [Compound 2]
Effect on blood pressure (anesthetized rat; 0.02 mg/kg, iv.): sustained rise in blood pressure

O[C@@H]1[C@H](O)[C@@H](CCl)O[C@H]1n1cnc2c(NC3C[C@H]4CC[C@@H]3C4)ncnc21 (stereo partly shown) [Compound 4]
Tb (wild-type C57BL/6J mice [8]; 3 mg/kg ip.): 32.2±1.3 °C
ARs causing hypothermia (A1AR, A3AR [9]): A1AR > A3AR[30]

CNC(=O)[C@]12C[C@@H]1[C@@H](n1cnc3c(NC4CCCC4)nc(Cl)nc31)[C@H](O)[C@@H]2O [Compound 6]
Ki (σ1): 1550 nM

O[C@@H]1[C@H](O)[C@@H]2C[C@@H]2[C@H]1n1cnc2c(NC(C3CC3)C3CC3)nc(Cl)nc21 [Compound 7]
Hits in kinase screen (403 kinases): only two weak hits
Lethality in the mouse (mouse): non-lethal
Broad GPCR screening result (GPCR assays): not promiscuous
Stability in human liver microsomes (Human liver microsomes): stable
Tb (wild-type C57BL/6J mice [8]; 3 mg/kg ip.): 33.4±1.7 °C
ARs causing hypothermia (A1AR, A3AR [9]): A3AR >> A1AR[30]
Clinical observations [10]: no clinical observations
Stability in simulated intestinal fluid [7]: stable
Effects on heart rate and blood pressure (anesthetized rat; 3 mg/kg, ip.): modest effects on heart rate (slow onset of reduction) and blood pressure (a modest, transient rise)
Adverse reaction after oral dosing (female rhesus monkeys): no adverse reaction

OC[C@H]1O[C@@H](n2cnc3c(NC(C4CC4)C4CC4)ncnc32)[C@H](O)[C@@H]1O [Compound 8]
Ki (hA3AR): 41.3 ± 5.3 nM
Ki (hA2AAR): 1470 ± 380 nM
Ki (rA2AAR): 1370 nM
Ki (hA1AR): 0.85 ± 0.27 nM
Off-target, receptor: interactions found [11]: none

O[C@@H]1[C@H](O)[C@@H]2C[C@@H]2[C@H]1n1cnc2c(NC(C3CCCC3)C3CCCC3)nc(Cl)nc21 [Compound 20]
A1AR % inhibition (hA1AR; at 10 μM, ref [33],[34]): 34±3% (h)

Nc1nc(Cl)nc2c1ncn2[C@H]1[C@H](O)[C@H](O)[C@]2(CO)C[C@H]12 [Compound 21]
Ki (rA1AR): 273 nM
Off-target, receptor: interactions found [11]: none

OCC12CC1C(n1cnc3c(NC(C4CC4)C4CC4)nc(Cl)nc31)C(O)C2O (stereo not shown) [Compound 23]
Ki (DAT): 4750 nM
Ki (hA3AR): 1600 ± 210 nM
Ki (mA3AR): 1030 nM
Ki (mA1AR): 0.71 nM
Ki (hA2AAR): 2200 nM
A2AAR % inhibition (mA2AAR): 41±9%
Ki (5HT2C): 1850 nM
Ki (hA1AR): 39 ± 17 nM

NC(=O)c1ncn([C@@H]2O[C@H](CO)[C@@H](O)[C@H]2O)n1 [Compound 38, ribavirin, reference compound]
Ki (bovine A1AR): 86000 nM
inhibition at 10 µM (hA2BAR; read-out: hA2BAR % binding inhibition at 10 μM): 39%
